Data from PubChem BioAssay AID2060627 (Molecular Pharmacology Branch, DTP, NCI, 2025).
Several values for one entry are separate records, joined by “and”; a condition that tells them apart may be missing. Equal entries are not always repeated.

Tested on: 156681-154-R-J1-PDC complex spheroid viability
Test: Anticancer human tumor 156681-154-R-J1-PDC patient-derived melanoma cell line growth inhibition [CLK]
Settings: for viability, T/C: stronger effect = lower value
From the text: A high-throughput screen of multi-cell type tumor spheroids was designed to identify active combinations of […] and targeted small molecules. Complex spheroids include a stromal component modeled by human endothelial cells (HUVEC) and fibroblasts modeled by human mesenchymal stem cells (MSCs). The concentration ranges selected for each drug and investigational agent were based upon clinically achievable concentrations if the clinical Cmax of the agent was known.
Compounds. The drugs and investigational agents: cirtuvivint (SM08502; NSC835563), CC-671 (NSC850746), vemurafenib (NSC761431), tapotoclax (NSC804041), sotorasib (NSC818433), adagrasib (NSC831453), MRTX-1133 (NSC836407), BAY2416964 (NSC825713), copanlisib (NSC816437), inavolisib (NSC800729), abemaciclib (NSC768073), osimertinib (NSC779217), entinostat (NSC756642), eltanexor (KPT-8602, NSC794443), venetoclax (NSC766270), ceralasertib (NSC777638), bortezomib (NSC756655), olaparib (NSC753686), talazoparib (NSC767125), alisertib (NSC759677), peposertib (NSC802822), gemcitabine (NSC613327), 5-fluorouracil (NSC19893), SN-38 (NSC673596), oxaliplatin (NSC266046), paclitaxel (NSC125973), and doxorubicin (NSC123127), were obtained from the National Cancer Institute (NCI) Developmental Therapeutics Program Chemical Repository. The FDA-approved anticancer drug set is available from the Developmental Therapeutics Program at https://dtp.cancer.gov/organization/dscb/obtaining/available plates.htm. […] The stock solutions were prepared in dimethyl sulfoxide (DMSO, Sigma-Aldrich, St. Louis, MO, cat. D2650), except for the platinum complexes which were prepared in saline (Quality Biological, Gaithersburg, MD, cat. 114-055-101), at 800-fold the tested concentration and stored at -70 degrees C prior to their use. All drugs and investigational agents were tested over a range starting from a high concentration at or near the clinical Cmax and decreasing in half-log increments. If the clinical Cmax for an agent had not been determined, the highest concentration tested was 10 microM.
Cell Culture. All cells were maintained in an incubator at 37 degrees C and 5% CO2 with 95% humidity. The PDC lines were cultured according to standard operating procedures established by the NCI PDMR. Briefly, all PDCs were thawed and cultured in Matrigel-coated flasks prepared with a working solution of 1X Ham's F-12 nutrient mix, without supplementation (Invitrogen, Waltham, MA, cat. 11765054), 100 U/mL penicillin-streptomycin (Invitrogen, cat. 15140122), and 2.5% Matrigel (Corning Inc., Corning, NY, cat. 354248) for the first three passages. The 947758-054-R-J2-PDC line was cultured in 6B/Colon 1A media, which includes advanced DMEM/F-12 (Thermo Fisher Scientific, cat. 12634028), 10 mM HEPES (Thermo Fisher Scientific, cat. 15630080), 1X GlutaMAX supplement (Thermo Fisher Scientific, cat. 35050061), 0.1 mg/mL primocin (InvivoGen, cat. ant-pm-2), 10% defined fetal bovine serum, heat inactivated (HyClone Laboratories Inc., cat. SH30070.03HI), 1.25 mM N-Acetyl-L-cysteine (Sigma-Aldrich, cat. A9165), 10 mM nicotinamide (Sigma-Aldrich, cat. N0636), 1X B-27 supplement (Thermo Fisher Scientific, cat. 17504044), 1X N-2 supplement (Thermo Fisher Scientific, cat. 17502048), and 10 microM Y-27632 dihydrochloride (Tocris Bioscience, cat. 1254). The 876862-298-R-J1-PDC was cultured in 6E media, which includes all 6B/Colon 1A media components plus 50% L-WRN conditioned media (ATCC, cat. CRL-3276), 50 ng/mL recombinant human EGF recombinant protein (hEGF; Thermo Fisher Scientific, cat. PHG0311), 10 ng/mL recombinant human fibroblast growth factor 10 (hGFG-10; PeproTech, cat. 100-26), 1 ng/mL recombinant human fibroblast growth factor 2 (hFGF-2; PeproTech, cat. 100-18B), and 1 µM prostaglandin E2 (PGE2; Tocris, cat. 2296). The 227483-062-R1-J1-PDC line was cultured in Panc media, containing all 6E components except hFGF-2, with the addition of 500 nM SB-431542 (Selleckchem, cat. S1067) and 10 nM gastrin (Tocris, cat. 3006). […]

[1] = curve of first compound, second compound 0.0316 µM
[2] = curve of first compound, second compound 0.1 µM
[3] = curve of first compound, second compound 0.316 µM
[4] = curve of first compound, second compound 1 µM
[5] = curve of first compound, second compound 3.16 µM
[6] = curve of first compound, second compound 10 µM
[7] = second compound 0.0316 µM, first compound 0.0316 µM
[8] = second compound 0.0316 µM, first compound 0.1 µM
[9] = second compound 0.0316 µM, first compound 0.316 µM
[10] = second compound 0.0316 µM, first compound 1 µM
[11] = second compound 0.1 µM, first compound 0.0316 µM
[12] = second compound 0.1 µM, first compound 0.1 µM
[13] = second compound 0.1 µM, first compound 0.316 µM
[14] = second compound 0.1 µM, first compound 1 µM
[15] = second compound 0.316 µM, first compound 0.0316 µM
[16] = second compound 0.316 µM, first compound 0.1 µM
[17] = second compound 0.316 µM, first compound 0.316 µM
[18] = second compound 0.316 µM, first compound 1 µM
[19] = second compound 1 µM, first compound 0.0316 µM
[20] = second compound 1 µM, first compound 0.1 µM
[21] = second compound 1 µM, first compound 0.316 µM
[22] = second compound 1 µM, first compound 1 µM
[23] = second compound 3.16 µM, first compound 0.0316 µM
[24] = second compound 3.16 µM, first compound 0.1 µM
[25] = second compound 3.16 µM, first compound 0.316 µM
[26] = second compound 3.16 µM, first compound 1 µM
[27] = second compound 10 µM, first compound 0.0316 µM
[28] = second compound 10 µM, first compound 0.1 µM
[29] = second compound 10 µM, first compound 0.316 µM
[30] = second compound 10 µM, first compound 1 µM
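Also: spheroids exposed to the agents for seven days.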
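For viability, T/C in this document: 100% = DMSO vehicle control viability.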

For `CC1(C)CCC(CN2CCN(c3ccc(C(=O)NS(=O)(=O)c4ccc(NCC5CCOCC5)c([N+](=O)[O-])c4)c(Oc4cnc5[nH]ccc5c4)c3)CC2)=C(c2ccc(Cl)cc2)C1`, the viability, T/C (compound 0.0316 µM) was 112% and 88.5%, the viability, T/C (compound 0.1 µM) was 81.5% and 88.9% and the viability, T/C (compound 0.316 µM) was 88.7% and 90.4%. The viability, T/C (compound 1 µM) was 101% and 94.3%, the viability, T/C (compound 3.16 µM) was 68.2% and 77.1% and the viability, T/C (compound 10 µM) was 4.6% and 1.6%. For the same compound, the IC50 (curve of compound) was 4390 nM and 4780 nM.

For `CCN1CCN(Cc2ccc(Nc3ncc(F)c(-c4cc(F)c5nc(C)n(C(C)C)c5c4)n3)nc2)CC1` + CNC(=O)c1ccc(Nc2nc(OC3CCCC3)c3c(-c4ccc5nc(C)oc5c4)c[nH]c3n2)c(OC)c1, the IC50 [1] was 825 nM, the IC50 [2] was 429 nM and the IC50 [3] was 429 nM. The IC50 [4] was 394 nM, the IC50 [5] was under 3.16 nM and the IC50 [6] was under 3.16 nM. The viability, T/C (second compound 0.0316 µM, first compound 0.00316 µM) was 93%, the viability, T/C (second compound 0.0316 µM, first compound 0.01 µM) was 104% and the viability, T/C [7] was 83.7%. The viability, T/C [8] was 84.2%, the viability, T/C [9] was 75.5% and the viability, T/C [10] was 44.3%. For the same compound, the viability, T/C (second compound 0.1 µM, first compound 0.00316 µM) was 50.5%, the viability, T/C (second compound 0.1 µM, first compound 0.01 µM) was 72.3% and the viability, T/C [11] was 68.2%. For the same compound, the viability, T/C [12] was 57.9%, the viability, T/C [13] was 52.9% and the viability, T/C [14] was 38.6%. For the same compound, the viability, T/C (second compound 0.316 µM, first compound 0.00316 µM) was 85.4%, the viability, T/C (second compound 0.316 µM, first compound 0.01 µM) was 62% and the viability, T/C [15] was 72.2%. For the same compound, the viability, T/C [16] was 77.8%, the viability, T/C [17] was 54% and the viability, T/C [18] was 39%. It also gave a viability, T/C (second compound 1 µM, first compound 0.00316 µM) of 51.8%, a viability, T/C (second compound 1 µM, first compound 0.01 µM) of 56.5% and a viability, T/C [19] of 51.3%. The viability, T/C [20] was 60.2%, the viability, T/C [21] was 61% and the viability, T/C [22] was 24.2%. For the same compound, the viability, T/C (second compound 3.16 µM, first compound 0.00316 µM) was 61.6%, the viability, T/C (second compound 3.16 µM, first compound 0.01 µM) was 47.8% and the viability, T/C [23] was 40.7%. The viability, T/C [24] was 48%, the viability, T/C [25] was 46.6% and the viability, T/C [26] was 19.8%. It also gave a viability, T/C (second compound 10 µM, first compound 0.00316 µM) of 51.7%, a viability, T/C (second compound 10 µM, first compound 0.01 µM) of 38.5% and a viability, T/C [27] of 43.8%. For the same compound, the viability, T/C [28] was 51%, the viability, T/C [29] was 41.9% and the viability, T/C [30] was 21.7%.

Compound `C=C(F)C(=O)N1CCN(c2nc(OCC3CCCN3C)nc3c2CCN(c2cccc4cccc(Cl)c24)C3)CC1CC#N` (stereo unspecified) + CN1CCN(c2cc(C(=O)Nc3cc4cc(-c5cnn(C)c5)ccc4cn3)ccn2)CC1 has an IC50 [1] of 2590 nM, an IC50 [2] of 1770 nM and an IC50 [3] of under 31.6 nM. For the same compound, the IC50 [4] was under 31.6 nM, the IC50 [5] was under 31.6 nM and the IC50 [6] was under 31.6 nM. The viability, T/C [7] was 101%, the viability, T/C [8] was 107% and the viability, T/C [9] was 108%. The viability, T/C [10] was 81.1%, the viability, T/C (second compound 0.0316 µM, first compound 3.16 µM) was 44% and the viability, T/C (second compound 0.0316 µM, first compound 10 µM) was 0.43%. For the same compound, the viability, T/C [11] was 94.3%, the viability, T/C [12] was 94.6% and the viability, T/C [13] was 91.7%. The viability, T/C [14] was 79.5%, the viability, T/C (second compound 0.1 µM, first compound 3.16 µM) was 20% and the viability, T/C (second compound 0.1 µM, first compound 10 µM) was 0.6%. The viability, T/C [15] was 22.1%, the viability, T/C [16] was 24.1% and the viability, T/C [17] was 23.3%. For the same compound, the viability, T/C [18] was 24.7%, the viability, T/C (second compound 0.316 µM, first compound 3.16 µM) was 6.76% and the viability, T/C (second compound 0.316 µM, first compound 10 µM) was 1.76%. It also gave a viability, T/C [19] of 0.16%, a viability, T/C [20] of 0.32% and a viability, T/C [21] of 0.25%. The viability, T/C [22] was 0.59%, the viability, T/C (second compound 1 µM, first compound 3.16 µM) was 0.1% and the viability, T/C (second compound 1 µM, first compound 10 µM) was 0.24%. The viability, T/C [23] was 0.12%, the viability, T/C [24] was 1.74% and the viability, T/C [25] was 1.8%. For the same compound, the viability, T/C [26] was 0.12%, the viability, T/C (second compound 3.16 µM, first compound 3.16 µM) was 0.36% and the viability, T/C (second compound 3.16 µM, first compound 10 µM) was 1.56%. It also gave a viability, T/C [27] of 0.17%, a viability, T/C [28] of 0.19% and a viability, T/C [29] of 1.71%. The viability, T/C [30] was 0.23%, the viability, T/C (second compound 10 µM, first compound 3.16 µM) was 0.23% and the viability, T/C (second compound 10 µM, first compound 10 µM) was 0.8%.
